Legend:
HbA1c [1] = conditions: DePaoli et al. Diabetes Care 2014; cited from earlier work
[2] = subjects taking INT131 vs pioglitazone; DePaoli et al. Diabetes Care 2014; cited from earlier work
adiponectin [3] = assay: 24-week randomized, double-blind, placebo-controlled study: serum adiponectin levels in subjects with type 2 diabetes; type: in vivo, human; conditions: for Mean Change in adiponectin from baseline to Week 24: LOCF; for Mean Change in adiponectin from baseline to Week 24 / Mean Adiponectin, Week 24 / Mean Adiponectin, Week 0: type 2 diabetes, serum; for Mean Adiponectin, Week 0: baseline (Week 0)
Description: A randomized, double-blind, placebo-controlled, 24-week study was conducted in which adiponectin levels were measured. […] 367 subjects with type 2 diabetes (TD2)—a disease in which patient adiponectin levels are reduced—were randomly assigned to receive either 0.5, 1, 2 or 3 milligrams (“mg”) of INT131 besylate, 45 mg of pioglitazone or placebo daily for 24 weeks. To measure adiponectin levels blood was drawn at Weeks 0, 2, 6, 12 and 24.
At baseline (Week 0) mean adiponectin levels were 1.94 micrograms per milliliter (“μg/mL”). The mean adiponectin levels at baseline and Week 24, and the mean change in adiponectin levels from baseline (Week 0) to Week 24 are disclosed in Table 1, below. The standard deviation for samples tested in each group is listed in (parenthesis). Mean baseline adiponectin values were similar for the treatment groups.

adiponectin [4] = assay: 14-day study of serum adiponectin levels in healthy subjects; type: in vivo, human
Description: A study was conducted to determine the effect of INT131 on serum adiponectin levels. Thirty healthy subjects were randomly selected to receive either placebo, 0.1 mg INT131, 1 mg INT131 or 4 mg INT131 daily for 14 days. To measure adiponectin levels blood was drawn at Days 1, 4, 8 and 14.

HbA1c [5] = assay: 24-week randomized, double-blind, placebo-controlled study: HbA1c levels in subjects with type 2 diabetes; type: in vivo, human; conditions: 24 weeks
[6] = in words; cited from earlier work
[7] = tested on: subjects with Relapsing Remitting Multiple Sclerosis (RRMS); assay: 6-month placebo-controlled MRI study in Relapsing Remitting Multiple Sclerosis (CE lesions, T2 lesions, brain volume); type: in vivo, human; conditions: for cumulative CE lesions / reduction of CE lesion burden vs. placebo / cumulative CE lesions, LSMean: over 6 months; for cumulative CE lesions: complete case analysis, placebo 7.8; for cumulative CE lesions, LSMean: placebo LSMean 6.49
Description: 227 treatment-naive adult subjects (mean age 31 [range 18-50]; 65% female) were randomized into one of three arms: oral CHS-131 at 3 mg (n=76); oral CHS-131 at 1 mg (n=76); placebo (n=75), at 21 sites in Russia. 97% completed Part 1. Inclusion criteria: Relapsing Remitting Multiple Sclerosis (RRMS) for ≤3 years, ≥1 gadolinium-positive lesion within 1-year of enrollment, and an EDSS≤6 at screening. The patients underwent monthly MRI examinations with contrast to identify new inflammatory lesions. All […] were read blinded at the Buffalo Neuroimaging Center (Buffalo, N.Y.). In addition to CE lesions the images were scored for cumulative new/enlarged T2 lesions, and serial cortical and whole brain volumetric analysis.

Structure (SMILES): O=S(=O)(Nc1cc(Cl)c(Oc2cnc3ccccc3c2)c(Cl)c1)c1ccc(Cl)cc1Cl [INT131]
- efficacy in reducing HbA1c levels versus 45 mg of pioglitazone (HbA1c [1]): equally efficacious
- side effects versus pioglitazone [2]: less edema, weight gain, and hemodilution
- Mean Change in adiponectin from baseline to Week 24 (adiponectin [3]; 0.5 mg daily): 0.56 µg/mL
- Mean Change in adiponectin from baseline to Week 24 (adiponectin [3]; 1 mg daily): 1.28 µg/mL
- adiponectin treatment comparison with placebo (adiponectin [3]; 1 mg, 2 mg, and 3 mg doses, p≤0.0109): statistically significant
- Mean Change in adiponectin from baseline to Week 24 (adiponectin [3]; 2 mg daily): 3.27 µg/mL
- Mean Change in adiponectin from baseline to Week 24 (adiponectin [3]; 3 mg daily): 3.83 µg/mL
- upregulation of serum adiponectin levels compared with pioglitazone (adiponectin [3]; 2 or 3 mg INT131 vs at least 22 times the amount of pioglitazone): greater upregulation
- Mean Adiponectin, Week 24 (adiponectin [3]; 0.5 mg daily): 2.28 µg/mL
- Mean Adiponectin, Week 24 (adiponectin [3]; 1 mg daily): 3.15 µg/mL
- Mean Adiponectin, Week 24 (adiponectin [3]; 2 mg daily): 5.14 µg/mL
- Mean Adiponectin, Week 24 (adiponectin [3]; 3 mg daily): 5.83 µg/mL
- Mean Adiponectin, Week 0 (adiponectin [3]; 0.5 mg INT131 besylate daily group): 1.73 µg/mL
- Mean Adiponectin, Week 0 (adiponectin [3]; 1 mg INT131 besylate daily group): 1.87 µg/mL
- Mean Adiponectin, Week 0 (adiponectin [3]; 2 mg INT131 besylate daily group): 1.87 µg/mL
- Mean Adiponectin, Week 0 (adiponectin [3]; 3 mg INT131 besylate daily group): 2.00 µg/mL
- change in serum adiponectin levels Day 1 to Day 14 and over placebo (adiponectin [4]; 0.1 mg daily for 14 days): no significant change
- change in serum adiponectin levels over placebo and from Day 1 to Day 14 (adiponectin [4]; 1 mg or 4 mg daily for 14 days): significant change
- reduction of HbA1c levels as compared to placebo (HbA1c [5]; 1, 2, and 3 mg doses daily): statistically significant reduction
- reduction of HbA1c levels compared with 45 mg of pioglitazone (HbA1c [5]; 2 and 3 mg doses daily): at least as well as 45 mg of pioglitazone
- crossing of the blood brain barrier [6]: readily crosses the blood brain barrier
- cumulative CE lesions ([7]; 1 mg oral): 7.6
- reduction of CE lesion burden vs. placebo ([7]; 1 mg oral, p=ns, RRMS): 21%
- cumulative CE lesions, LSMean ([7]; 1 mg oral): 5.15
- reduction of new/enlarged T2 lesions compared to placebo ([7]; 1 mg, p=ns, RRMS): 14%
- cumulative CE lesions ([7]; 3 mg daily oral): 4.2 lesions
- reduction of CE lesion burden vs. placebo ([7]; 3 mg daily oral, p=0.003, RRMS): 52%
- cumulative CE lesions, LSMean ([7]; 3 mg daily oral): 3.10
- less cortical volume loss compared to placebo ([7]; 3 mg daily, 6 months, RRMS): 34.2%
- less whole brain volume loss compared to placebo ([7]; 3 mg daily, 6 months, RRMS): 50%
- reduction of new/enlarged T2 lesions compared to placebo ([7]; 3 mg, p=0.0767, RRMS): 30%

Structure (SMILES): CCc1ccc(CCOc2ccc(CC3SC(=O)NC3=O)cc2)nc1 (stereo not shown) [Pioglitazone, pioglitazone, reference compound]
- Mean Change in adiponectin from baseline to Week 24 (adiponectin [3]; 45 mg daily): 2.96 µg/mL
- Mean Adiponectin, Week 24 (adiponectin [3]; 45 mg daily): 5.28 µg/mL
- Mean Adiponectin, Week 0 (adiponectin [3]; 45 mg pioglitazone daily group): 2.32 µg/mL

Source: patent publication US11253508B2, “PPARy agonist for treatment of progressive supranuclear palsy” (Coherus Biosciences, Inc., priority 2017, dated 2022)
